Measurements as given in ChEMBL document CHEMBL3813660, “Kinetic and X-ray crystallographic investigations of substituted 2-thio-6-oxo-1,6-dihydropyrimidine-benzenesulfonamides acting as carbonic anhydrase inhibitors” (Bioorg Med Chem, 2016).

Legend:
Carbonic anhydrase 1 = Carbonic anhydrase 1 (Homo sapiens, UniProt P00915); assay: Inhibition of human carbonic anhydrase 1 preincubated for 6 hrs at 4 degC measured for 10 to 100 secs by stopped-flow carbon dioxide hydration assay
Carbonic anhydrase 2 = Carbonic anhydrase 2 (Homo sapiens, UniProt P00918); assay: Inhibition of human carbonic anhydrase 2 preincubated for 6 hrs at 4 degC measured for 10 to 100 secs by stopped-flow carbon dioxide hydration assay
Carbonic anhydrase 12 = Carbonic anhydrase 12 (Homo sapiens, UniProt O43570); assay: Inhibition of human carbonic anhydrase 12 preincubated for 6 hrs at 4 degC measured for 10 to 100 secs by stopped-flow carbon dioxide hydration assay
Carbonic anhydrase 9 = Carbonic anhydrase 9 (Homo sapiens, UniProt Q16790); assay: Inhibition of human carbonic anhydrase 9 catalytic domain preincubated for 6 hrs at 4 degC measured for 10 to 100 secs by stopped-flow carbon dioxide hydration assay

Chain of Carbonic anhydrase 1 (P00915 whole entry): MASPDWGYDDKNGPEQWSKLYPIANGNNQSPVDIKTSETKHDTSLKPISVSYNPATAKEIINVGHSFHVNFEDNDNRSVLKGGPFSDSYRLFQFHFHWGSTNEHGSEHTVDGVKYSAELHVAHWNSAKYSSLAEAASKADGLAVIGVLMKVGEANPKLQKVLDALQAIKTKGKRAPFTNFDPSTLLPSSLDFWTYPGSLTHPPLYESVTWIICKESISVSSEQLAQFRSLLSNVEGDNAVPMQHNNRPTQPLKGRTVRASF
Chain of Carbonic anhydrase 12 (O43570 whole entry, the tested form may be a part): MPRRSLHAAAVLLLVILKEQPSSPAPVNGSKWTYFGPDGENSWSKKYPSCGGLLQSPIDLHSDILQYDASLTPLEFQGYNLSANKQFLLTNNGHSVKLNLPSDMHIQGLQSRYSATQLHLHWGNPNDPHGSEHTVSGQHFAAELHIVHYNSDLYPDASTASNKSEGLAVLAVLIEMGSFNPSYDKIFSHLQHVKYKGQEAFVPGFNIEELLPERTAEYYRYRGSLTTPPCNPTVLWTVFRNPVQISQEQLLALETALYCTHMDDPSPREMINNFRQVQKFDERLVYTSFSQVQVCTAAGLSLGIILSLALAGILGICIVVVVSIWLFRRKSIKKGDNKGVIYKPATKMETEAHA

SMILES | Ki (Carbonic anhydrase 1) [nM] | Ki (Carbonic anhydrase 2) [nM] | Ki (Carbonic anhydrase 12) [nM] | Ki (Carbonic anhydrase 9) [nM]
CC(Sc1nc(-c2ccc(Cl)cc2)c(C#N)c(=O)[nH]1)C(=O)Nc1ccc(S(N)(=O)=O)cc1 (stereo not given) | 83 | 5 | 9.2 | 
CC(Sc1nc(-c2ccc(Cl)c(Cl)c2)c(C#N)c(=O)[nH]1)C(=O)Nc1ccc(S(N)(=O)=O)cc1 (stereo not given) | 48 | 5.1 | 7.8 | 19
CC(Sc1nc(-c2ccc(Cl)c(F)c2)c(C#N)c(=O)[nH]1)C(=O)Nc1ccc(S(N)(=O)=O)cc1 (stereo not given) | 34 | 6.1 | 9.1 | 37
CCC(Sc1nc(-c2cccc(OC)c2)c(C#N)c(=O)[nH]1)C(=O)Nc1ccc(S(N)(=O)=O)cc1 (stereo not given) | 32 | 6.4 | 24 | 24
